Patent US10266545B2, “Coumarin derivative as antiviral agent, pharmaceutical composition thereof, its preparation and use” (I-NOVA MEDICINSKA ISTRAZIVANJA D.O.O., priority 2016, dated 2019)

Target: T1, rRT (exogenous recombinant RT) (Human immunodeficiency virus type 1 group M subtype B, UniProt P03366)
T1 construct: recombinant RT was added with a known activity and concentration; purchased Cavidi (Sweden) 52010
Assay: Direct effect on exogenous recombinant RT (rRT), HS-Lenti RT activity kit
Format: biochemical, HIV-1
Details: for inhibition at 10 µM: 0.01 mM
Description: The RT test was performed by using HS-Lenti RT activity kit test provided by Cavidi (Sweden) for direct study of inhibitory effect of rRT. HS-Lenti RT activity assay provides an opportunity for direct determination of the effects of the test compound 1 and the control compound 2 on the activity of rRT, of known concentrations. […] Such opportunity is provided by the test kit manufacturer, see literature reference 10: • 10) X. Shao, D. Ekstrand, R. Bhikhabhai, C. Kallander, J. Gronowitz: A non-radioactive microtitre plate reverse transcriptase (RT) assay, based on immobilized template, for screening of RT activity inhibitors and evaluation of the mode of action, Antiviral Chem. Chemother. 8 (1997) 149-159.
For the control, commonly used substance with proven antiviral activity was employed; in our case, we used Kivexa, which contains 600 mg Abacavir and 300 mg of Lamivudine, which is applied in clinical practice as nucleoside inhibitor of RT. In the presence of RT inhibition in the test, it is concluded that not only the replication of the virus is inhibited, but also probably the target of the inhibitory effect is RT itself. To confirm this conclusion, it is necessary that percentage (%) of inhibition of the RT coincides with the % inhibition in the microtiter MTT assay. […] After incubation, we determined whether the activity of the enzyme shall be amended (inhibited) by action of the compounds 1 or 2. […]
The procedure was as follows: In wells of a company plate coated with a matrix poly-rA, are added reaction mixture to RT, the primer containing oligo-dT, Brd UTP as a source of dNTP and prepared at buffer of the commercial test 10× more concentrated (as reaction mixture was in a volume of 100 μl) of the test substance dilutions. […] Manifestation of the enzyme reaction was carried out using a suitable substrate for alkaline phosphatase for 30 minutes and then the absorbance was detected at a wavelength of 405 nm. […]

Structure (SMILES) | inhibition at 5 µM (0.005 mM) [%] | inhibition at 10 µM [%]
O=c1oc2cc(O)cc(O)c2c(O)c1-c1coc2c1c(=O)oc1cc(O)cc(O)c12 [Compound 1, 7,9-dihydroxy-3-(4,5,7-trihydroxy-2-oxo-2H-chromene-3-yl)-4H-furo[3,2-c]chromen-4-one] | 0 | 72.8
O=c1oc2cc(O)c(O)cc2c(O)c1-c1coc2c1c(=O)oc1cc(O)c(O)cc12 [Compound 2, 7,8-dihydroxy-3-(4,6,7-trihydroxy-2-oxo-2H-chromen-3-yl)-4H-furo[3,2-c]chromen-4-one, reference compound] | – | 0
